Experimental findings from paper PMC5220248 (Angewandte Chemie (International ed. in English), 2016) are described below.

Data set [1] addresses HIV Rev protein (Human immunodeficiency virus type 1 group M subtype B, UniProt P04618). The class given is binding.
For data set [2] the following is noted: human, serum.

A word on the IC50: it is the point on the concentration scale where inhibition reaches its midpoint. Read a low IC50 as greater potency in that assay. What is called half-life is the time in which the quantity being followed falls by half. The low end stands for rapid decline, the high end for slow decline.

Residues, ends and D or L forms follow the SMILES beside them.

`C[C@@H]1NC(=O)[C@H](C)NC(=O)[C@@H]2CCCN2C(=O)[C@H](Cc2ccc(O)cc2)NC(=O)[C@H](CCCNC(=N)N)NC(=O)[C@H](Cc2ccc(O)cc2)NC(=O)[C@H](CO)NC1=O` [cRBP, cyclo-YPAASYR] (cyclo(AASYRYP)): the IC50 in data set [1] stood at 28 ± 5 nM. Also, in data set [2], the half-life is around 30 h.
